From patent US10300049B2, “Myeloid differentiation inducing agents” (CASE WESTERN RESERVE UNIVERSITY, priority 2007, dated 2019)

Assays:
HL-60 cells [1] = assay: NBT reduction assay of differentiation in HL-60 cells; assay type: cell-based, human; conditions: for NBT reduction, ATRA alone (%) / NBT reduction, Decitabine alone (%): 4 days; for cells differentiated, NBT reduction assay: HL-60 cells, 4 days (FIG. 3); for NBT (%): 10 days
Text: The NBT screen works due to changes in the oxidoreductases during differentiation that lead to increases in rates of NBT reduction. NBT is reduced due to the production of superoxide that is catalyzed by an NADPH oxidase. […] A quantitative NBT reduction assay is ideal for this type of screen as it is simple, sensitive, quantitative, requires minimal cells, has been proven to have low well to well variability, and the amount of reduced NBT is proportional to the number of cells reducing the dye as well as the amount reduced by each cell.
(§1) […] […] Differentiation is determined in the 96 well plates by incubating the cells with 1 mg/ml of NBT and 200 ng/ml of PMA as the stimulant for the respiratory burst for 35 minutes at 37° C. The reaction can then be stopped with HCL and the formazan will be solubilized with DMSO. Finally, the reaction mixture will be read spectrophotometricaly at 560 nm in a plate reader.
as §1, with “will” for “can”
The assays are done using the colorimetric process. The NBT reduction assay measures the respiratory burst and is done by stimulating the respiratory burst in cells with PMA and then looking for a color change in the NBT dye.

HL-60 cells [2] = assay: Flow cytometry of CD11b and CD14 cell surface markers; assay type: cell-based, human; conditions: for CD11b positive / CD14 positive: 4 days
Description: HL-60 cells were treated with the indicated compounds for 4 days, the cells were stained with CD11b-PE and CD14-FITC, and flow cytometric analysis was performed.

[3] = test system: HL-60 subcutaneous tumors; assay: Established HL-60 subcutaneous tumor xenograft in nude mice; assay type: in vivo
Description: Nude mice (5 per experimental group) were injected with 5×10^7 HL-60 cells bilaterally into the flank. 9 days after tumor cell inoculation, the indicated drugs were injected I.P. three times a week for 3 weeks. […] Representative picture of the mice at the end of the study period (B). Representative picture of tumors dissected from the indicated mice. (C). Average weights of tumors dissected from all mice (D).
(§2) In order to further assess the in vivo potential of 6BT and Securinine, mouse xenograft experiments were performed. In the first model, the ability of 6BT and Securinine to inhibit established HL-60 subcutaneous leukemic tumor growth in nude mice was assessed. […] In the second model system, the ability of 6BT to prevent either HL-60 or MV-411 tumor formation in nude mice was assessed.
(§3) This Example assed the effects of securinine and its analogues in mice. […] HL-60 cell is an AML cell line commonly used for in-vitro studies and typically they are classified as M2 subtype. […] Therefore this was the highest dose that could be safely utilized.
Next we repeated the mouse xenograft experiments using i.p. drug administration (20 mg/kg), but with twice a day dosing again using HL-60 cell tumors.
Securinine (20 mg/kg) or vehicle ([…]) was injected i.p. into mice starting 10 days after HL-60 cell inoculation bilaterally into the flanks of nude mice (5 mice per group).

HL-60 cells [4] = assay: Morphology, cytospin with Wright-Giemsa stain; assay type: cell-based, human; conditions: 4 days
Description: HL-60 cells were treated with the indicated compounds for 4 days. Cytospin preparations were prepared and the cells were stained with Wright-Giemsa stain.

HL-60 cells [5] = assay: Cell cycle, propidium iodide flow cytometry; assay type: cell-based, human; conditions: 4 days
Description: HL-60 cells were treated with the indicated compounds for 4 days and the cells were stained with propidium iodide and analyzed by flow cytometry.

[6] = test system: normal human lymphocytes, normal human bone marrow, mouse embryonic fibroblasts, and human umbilical vein endothelial cells; assay: Toxicity on normal cells; assay type: cell-based
Text: In order to further assess the toxicity of 6BT and Securinine, normal human lymphocytes, normal human bone marrow, mouse embryonic fibroblasts, and human umbilical vein endothelial cells were examined.

[7] = test system: primary patient leukemic samples; assay: Differentiation and cell death in other AML cell lines and primary patient leukemic samples; assay type: cell-based, human
Description: FIGS. 7(A-B) illustrate 6BT and securinine have potent differentiation and cell death effects on primary leukemic samples. Primary patient leukemic samples were stained with CD34+ and sorted by flow cytometry. Leukemic cells were treated with the indicated compounds (6BT […]) for up to 7 days. A. Representative pictures showing morphological differentiation of primary patient samples B. 6BT and Securinine treated primary leukemic cells show either differentiation by NBT reduction or cell death.
In several cases, the compounds were able to induce a higher amount of differentiation than ATRA. It should be noted, that though ATRA is only clinically useful for APL, it is well known to potently induce the differentiation of many other AML cell lines in vitro. […] Though the exact mechanisms are not yet clear, certain leukemic cells appear to preferentially undergo cell death in response to 6BT and Securinine prior to full differentiation.
We then tested the effects of securinine on patient samples. […] Unfortunately, many of the patient samples were not suitable for analysis. A significant portion of the cells that were obtained were either nonviable or contaminated with bacteria.

[8] = Toxicity, tolerability and seizures in mice
Description: as §2, §3
We performed a preliminary test with the two most promising analogues, compound 2A and compound 2B to verify their safety.

c-myc = c-myc expression by real time PCR in HL-60 cells; assay type: cell-based, human; conditions: 1, 3, or 5 days
Description: (§4) FIG. 11 illustrates graphs showing securinine and 6BT downregulate c-myc expression and upregulate CEBPB. HL-60 cells were treated with the indicated compounds for 1, 3, or 5 days and total RNA was prepared. The relative expression of c-myc and CEPβ was determined by real time PCR.

CEBPβ = CEBPβ expression by real time PCR in HL-60 cells; assay type: cell-based, human; conditions: 1, 3, or 5 days
Description: as §4

p21 = p21 Western blot in HL-60 cells; assay type: cell-based, human; conditions: 1, 3, or 5 days
Description: (§5) HL-60 cells were treated with the indicated compounds for 1, 3, or 5 days and cells were lysed. Western blot analysis was performed with p21, Bcl-2, and actin antibodies.

Bcl-2 = Bcl-2 Western blot in HL-60 cells; assay type: cell-based, human; conditions: 1, 3, or 5 days
Description: as §5

p44/p42 and p38 = assay: Phospho-specific Western blot of p44/p42 and p38 in HL-60 cells; assay type: cell-based, human; conditions: 15 to 60 minutes
Description: FIG. 13 illustrates an immunoblot showing 6BT and Securinine activate both p44/p42 and p38. HL-60 cells were treated with the indicated compounds for 15, 20, 46, or 60 minutes and the cells were lysed. Western blot analysis was performed with phospho-specific antibodies to p44/p42 and p38 as well as the actin anibody.

p38delta = assay: Gene expression (microarray, real time PCR) in HL-60 cells; assay type: cell-based, human
Description: FIG. 14 illustrates graphs showing 6BT and securinine regulate the expression of genes that may play important roles in myeloid differentiation. HL-60 cells were treated with the indicated compounds for 1 or 3 days and total RNA was prepared. The relative expression of the indicated genes was assessed by real time PCR.
In order to further assess the signaling pathways of 6BT and securinine as well as to further elucidate the myeloid differentiation program in general, gene microarray studies were performed. These initial studies assessed the gene expression pattern at 16 and 72 hours after treatment. […] Several of these genes are known to be involved in the differentiation of non-hematopoietic cells such as neuron, muscle, and or keratinocyte differentiation. Selected examples of genes whose expression is strongly regulated by securinine and 6BT that have been verified is seen in […].

OCI-AML3 cells = assay: NBT reduction assay in OCI-AML3 cells; assay type: cell-based; conditions: 4 days
Description: The two most promising compounds (compound 2A and compound 2B) were further tested for their differentiation activity in several additional AML cell lines as compared to securinine (FIG. 17). […] In all three cell lines tested, a dose of only 2.5 uM of compound 2B was sufficient to induce nearly complete differentiation.
The above indicated cells were treated for 4 days and the NBT reduction assay was performed. The X-axis refers to the cell treatments and the Y-axis denotes the percentage of differentiation as measured by the NBT Reduction assay.

[9] = known; cited from earlier work
60 cancer cell lines = conditions: highest concentration used 100 μM; cited from earlier work
GABA A receptor = conditions: compared with securinine; cited from earlier work

CC1=C(/C=C/C(C)=C/C=C/C(C)=C/C(=O)O)C(C)(C)CCC1 [ATRA, all-trans-retinoic acid, reference compound]
NBT reduction, ATRA alone (%) (HL-60 cells [1]; ATRA 3 nM): 7%
NBT reduction, ATRA alone (%) (HL-60 cells [1]; ATRA 9 nM): 9%
NBT reduction, ATRA alone (%) (HL-60 cells [1]; ATRA 26 nM): 16%
NBT reduction, ATRA alone (%) (HL-60 cells [1]; ATRA 80 nM): 37%
NBT reduction, ATRA alone (%) (HL-60 cells [1]; ATRA 250 nM): 59%
cells differentiated, NBT reduction assay (HL-60 cells [1]): ~95%
CD11b positive (HL-60 cells [2]; 1 μM): 77%
CD14 positive (HL-60 cells [2]; 1 μM): 8%
tumor growth compared to vehicle treated mice ([3]; 15 mg/kg twice a day): did not show any difference in tumor growth

O=C1C=C2C=C[C@@H]3C[C@@]2(O1)[C@H]1CCCCN31 [Securinine]
cells differentiated, NBT reduction assay (HL-60 cells [1]): ~95%
concentration at which significant differentiation or cell death effects upon the leukemic cells occur (HL-60 cells [1]; leukemic cells in our studies): ~10 µM
enhancement of differentiation induced by ATRA and decitabine (HL-60 cells [1]; low concentrations, NBT reduction assay): capable of enhancing the differentiation induced by both ATRA and decitabine
CD11b positive (HL-60 cells [2]; 10 μM): 87%
CD14 positive (HL-60 cells [2]; 10 μM): 86%
synergy in upregulation of CD11b (HL-60 cells [2]; with ATRA and decitabine, data not shown): synergize in the upregulation of CD11b
morphologic changes (HL-60 cells [4]): clear morphologic changes suggestive of monocytic differentiation
cell cycle phase in which cells accumulate (HL-60 cells [5]): accumulation of cells in G0/G1
toxicity on normal cells [6]: induced cell death occurred at doses higher than those required for activity on leukemia cells
cell death of specific leukemic cell lines and primary patient samples [7]: quicly undergo cell death
differentiation of other AML cell lines and primary patient leukemic samples ([7]; 6BT 10 mM, Securinine 15 mM, up to 7 days (FIG. 7)): effective in differentiating other AML cell lines besides HL-60 cells, as well as primary patient leukemic samples
leukemia patient samples in which differentiation was induced ([7]; samples suitable for analysis): 8 of 10
average tumor size smaller than vehicle treated mice at end of study ([3]; 20 mg/kg i.p. twice a day): more than 75%
effect on growth of HL-60 subcutaneous tumors ([3]; 20 mg/kg once a day): could not detect any significant effects
inhibition of established HL-60 subcutaneous leukemic tumor growth ([3]; first model, I.P. three times a week for 3 weeks from day 9): not Securinine was found to have significant in vivo activity
toxicity in mice ([8]; 20 mg/kg): no evident toxicities
seizures in mice ([8]; dose approximately two fold higher than 20 mg/kg): lead to seizures
c-myc expression (c-myc): potently downregulate c-myc
CEBPβ expression (CEBPβ): time-dependent upregulation of CEBPβ
p21 protein level (p21): upregulated
Bcl-2 protein level (Bcl-2): downregulation of Bcl-2
phosphorylation of p44/p42 and p38 (p44/p42 and p38): rapid phosphorylation of p44/p42 and p38
p38delta expression (p38delta): upregulated
differentiation activity in OCI-AML3 cells (OCI-AML3 cells): modest differentiation activity
metabolism in vivo [9]: extremely rapid metabolism in vivo
seizures [9]: lead to seizures
average LD50 across the 60 cancer cell lines (60 cancer cell lines): 97 µM

C=C1/C(=C\C=C2/CCC[C@]3(C)[C@@H]([C@H](C)CCCC(C)(C)O)CC[C@@H]23)C[C@@H](O)C[C@@H]1O [Vitamin D, 1,25-dihydroxyvitamin D3, reference compound]
CD11b positive (HL-60 cells [2]; 100 nM): 90%
CD14 positive (HL-60 cells [2]; 100 nM): 65%

Nc1ncn([C@H]2C[C@H](O)[C@@H](CO)O2)c(=O)n1 [Decitabine, reference compound]
NBT reduction, Decitabine alone (%) (HL-60 cells [1]; Decitabine 10 ng/ml): 14%
NBT reduction, Decitabine alone (%) (HL-60 cells [1]; Decitabine 50 ng/ml): 23%
NBT reduction, Decitabine alone (%) (HL-60 cells [1]; Decitabine 100 ng/ml): 26%

O=C1C=C2C=C[C@@H]3C[C@@]2(O1)[C@@H]1CCCCN31 [Allosecurinine, allosecurinine]
NBT (%) (HL-60 cells [1]; 0.06 μM): 20%
NBT (%) (HL-60 cells [1]; 1.25 μM): 25%
NBT (%) (HL-60 cells [1]; 2.5 μM): 40%
NBT (%) (HL-60 cells [1]; 5 μM): 50%
NBT (%) (HL-60 cells [1]; 10 μM): 80%
GABA A receptor affinity (GABA A receptor): decreased GABA A receptor affinity

Cc1cc(O)nc2cc3oc4ccccc4c3cc12 [Compound 375, 4-methyl[1]benzofuro[3,2-g]quinolin-2-ol]
CD11b positive (HL-60 cells [2]; 10 μM): 64%
CD14 positive (HL-60 cells [2]; 10 μM): 19%
morphologic changes (HL-60 cells [4]): reproducible, but less pronounced changes
cell cycle phase in which cells accumulate (HL-60 cells [5]): accumulation in G2/M

O=C1C=C2C=C[C@H]3C[C@]2(O1)[C@@H]1CCCCN13 [Virosecurinine, virosecurinine]
NBT (%) (HL-60 cells [1]; 0.06 μM): 20%
NBT (%) (HL-60 cells [1]; 1.25 μM): 30%
NBT (%) (HL-60 cells [1]; 2.5 μM): 50%
NBT (%) (HL-60 cells [1]; 5 μM): 99%
NBT (%) (HL-60 cells [1]; 10 μM): 95%
GABA A receptor affinity (GABA A receptor): decreased GABA A receptor affinity
